Source: US20240409647A1, “BISPECIFIC BINDING PROTEINS AGAINST ALARMINS AND USES THEREOF” (SINOMAB BIOSCIENCE LIMITED, priority 2022, published 2024)

Columns and labels:
[1] = test system: Th2 cell population in human PBMC; assay: Th2 cell population in human PBMC culture (flow cytometry); format: cell-based; parameters: key: −: no inhibition; +: weak; ++: moderate; +++: strong inhibition; settings: IL-2 (10 unit/mL) and three alarmins (10 ng/ml), 5 days
From the text: (§1) While alarmins are known to work in concert to enhance ILC2 and Th2 cell functions such as increase in cell population, steroids such as Dexamethasone (Dex) can negate these effects, resulting in the mitigation of type 2 immune responses [Jia, Yi et al. American Journal Of Respiratory Cell And Molecular Biology, vol. 55, 5 (2016): 675-683]. ILC2 and Th2 cell population can be determined by flow cytometry (BD FACSVerse) following standard procedures known to those skilled in the art.

[2] = test system: ILC2 population in human PBMC; assay: ILC2 cell population in human PBMC culture (flow cytometry); format: cell-based; parameters: key: −: no inhibition; +: weak; ++: moderate; +++: strong inhibition; settings: IL-2 (10 unit/mL) and three alarmins (10 ng/ml), 5 days
From the text: as §1

[3] = patients who discontinued ICS and LABA, 12 weeks; placebo 41%; cited from earlier work

Compound	Cell proliferation inhibition, Th2 [1]	Cell proliferation inhibition, ILC2 [2]	rate of loss of asthma control [3] [%]
C[C@@H]1C[C@H]2[C@@H]3CCC4=CC(=O)C=C[C@]4(C)[C@@]3(F)[C@@H](O)C[C@]2(C)[C@@]1(O)C(=O)CO [Dex, Dexamethasone, reference compound]	+++	+	
Dupilumab: anti-IL-4Ra antibody inhibiting both IL-4 and IL-13 responses [reference compound]			19
